Results published in patent US6617334B2, “Antidepressant azaheterocyclylmethyl derivatives of 7,8-dihydro-1,6,9-trioxa-3-aza-cyclopenta[a]naphthalene” (Wyeth, priority 2001, dated 2003).
Counter-ions that a name gives are not always drawn.

Tests used:
serotonin transporter = biological target: T1, serotonin transporter (Rattus norvegicus, UniProt P31652); assay: 3H-paroxetine displacement, affinity for the serotonin transporter; type: binding
T1 construct: displace ^3H-paroxetine from male rat frontal cortical membranes; from tissue; host or cells: male rat frontal cortex membranes

human 5-HT1A receptors = biological target: T2, human 5-HT1A receptors (Homo sapiens, UniProt P08908); assay: [3H] 8-OHDPAT displacement from the 5-HT1A receptor in transfected CHO cells; type: binding
T2 construct: expressed in transfected cells; host or cells: CHO cells, stably transfected
T2 sequence (P08908 1-422): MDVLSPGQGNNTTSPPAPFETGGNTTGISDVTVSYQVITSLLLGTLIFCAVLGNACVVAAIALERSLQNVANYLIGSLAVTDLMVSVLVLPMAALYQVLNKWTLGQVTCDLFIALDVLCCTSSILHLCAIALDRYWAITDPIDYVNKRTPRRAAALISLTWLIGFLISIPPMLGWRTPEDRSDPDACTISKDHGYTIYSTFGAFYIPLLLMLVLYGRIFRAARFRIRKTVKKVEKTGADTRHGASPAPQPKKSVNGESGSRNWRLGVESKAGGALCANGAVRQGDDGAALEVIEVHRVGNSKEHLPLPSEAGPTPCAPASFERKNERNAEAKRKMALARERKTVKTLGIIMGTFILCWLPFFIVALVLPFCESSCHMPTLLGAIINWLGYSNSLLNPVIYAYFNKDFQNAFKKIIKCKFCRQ
Description: High affinity for the serotonin 5-HT1A receptor was established by testing the claimed compound's ability to displace [^3H] 8-OHDPAT (dipropylaminotetralin) from the 5-HT1A serotonin receptor following a modification of the procedure of Hall et al., J. Neurochem. 44, 1685 (1985) which utilizes CHO cells stably transfected with human 5-HT1A receptors.

[1] = biological target: T3, cloned human 5-HT1A receptors (Homo sapiens, UniProt P08908); assay: 35S-GTPγS binding assay, antagonist activity at 5-HT1A receptors; type: biochemical; settings: reversal of the effects of the standard agonist 8-OHDPAT; for IC50: read-out: 5-HT1A Function IC50
T3 construct: expressed in transfected cells
T3 sequence (P08908 1-422): T2 sequence (P08908 1-422)
Procedure: Antagonist activity at 5-HT1A receptors was established by using a ^35S-GTPγS binding assay similar to that used by Lazareno and Birdsall (Br. J. Pharmacol. 109: 1120, 1993), in which the test compound's ability to affect the binding of ^35S-GTPγS to membranes containing cloned human 5-HT1A receptors was determined. Agonists produce an increase in binding whereas antagonists produce no increase but rather reverse the effects of the standard agonist 8-OHDPAT. The test compound's maximum inhibitory effect is represented as the Imax, while its potency is defined by the IC50.

T1 sequence (P31652 whole entry): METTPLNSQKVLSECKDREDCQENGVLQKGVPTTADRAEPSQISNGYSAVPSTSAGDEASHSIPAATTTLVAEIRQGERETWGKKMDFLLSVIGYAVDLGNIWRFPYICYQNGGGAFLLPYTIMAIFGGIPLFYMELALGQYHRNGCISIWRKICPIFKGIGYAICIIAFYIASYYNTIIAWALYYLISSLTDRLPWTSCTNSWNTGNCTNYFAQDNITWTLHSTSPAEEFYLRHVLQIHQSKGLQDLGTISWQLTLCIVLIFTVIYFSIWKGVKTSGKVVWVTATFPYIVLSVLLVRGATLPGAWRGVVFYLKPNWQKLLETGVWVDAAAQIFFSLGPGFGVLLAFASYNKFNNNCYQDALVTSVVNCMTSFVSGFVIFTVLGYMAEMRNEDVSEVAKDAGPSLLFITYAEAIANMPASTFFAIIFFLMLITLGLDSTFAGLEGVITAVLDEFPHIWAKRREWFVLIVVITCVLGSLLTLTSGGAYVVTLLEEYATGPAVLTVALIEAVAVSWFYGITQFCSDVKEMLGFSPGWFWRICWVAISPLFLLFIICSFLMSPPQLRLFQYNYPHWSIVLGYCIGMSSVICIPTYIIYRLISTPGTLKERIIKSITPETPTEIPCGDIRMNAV

Structure (SMILES)	melting point	Ki (serotonin transporter)	Ki (human 5-HT1A receptors)	5-HT1A Function Imax (maximum inhibitory effect) [1]	IC50 [1]
Cc1nc2ccc3c(c2o1)OC(CN1CC=C(c2c[nH]c4c(F)cccc24)CC1)CO3 (stereo not shown)	208 to 210 °C	–	–	–	–
Cc1nc2ccc3c(c2o1)OC(CN1CC=C(c2c[nH]c4cc(F)ccc24)CC1)CO3 (stereo not shown)	188 to 190 °C	–	–	–	–
Cc1nc2ccc3c(c2o1)OC(CN1CC=C(c2c[nH]c4ccc(C#N)cc24)CC1)CO3 (stereo not shown) (as salt: fumarate) (hydrate or solvate) [Example 4, 3-[1-(2-Methyl-7,8-dihydro-1,6,9-trioxa-3-aza-cyclopenta[a]naphthalen-8-ylmethyl)-1,2,3,6-tetrahydro-pyridin-4-yl]-1H-indole-5-carbonitrile]	119 °C	–	–	–	–
C1=C(c2c[nH]c3ccccc23)CCN(CC2COc3ccc4ncoc4c3O2)C1 (stereo not shown) [Example 1, 8-[4-(1H-Indol-3-yl)-3,6-dihydro-2H-pyridin-1-ylmethyl]-7,8-dihydro-1,6,9-trioxa-3-aza-cyclopenta[a]naphthalene]	223 to 224 °C	4 nM	10.3 nM	45	334 nM
Cc1nc2ccc3c(c2o1)OC(CN1CC=C(c2c[nH]c4ccc(F)cc24)CC1)CO3 (stereo not shown) [Example 2, 8-[4-(5-Fluoro-1H-indol-3-yl)-3,6-dihydro-2H-pyridin-1-ylmethyl]-2-methyl-7,8-dihydro-1,6,9-trioxa-3-aza-cyclopenta[a]naphthalene]	95 °C	2.25 nM	5.43 nM	100	180 nM
Cc1nc2ccc3c(c2o1)OC(CN1CC=C(c2c[nH]c4ccccc24)CC1)CO3 (stereo not shown) [Example 3, 8-[4-(1H-Indol-3-yl)-3,6-dihydro-2H-pyridin-1-ylmethyl]-2-methyl-7,8-dihydro-1,6,9-trioxa-3-aza-cyclopenta[a]naphthalene]	196 °C	3.83 nM	7.56 nM	100	282 nM
Cc1nc2ccc3c(c2o1)OC(CN1CC=C(c2c[nH]c4ccc(C#N)cc24)CC1)CO3 (stereo not shown) [Example 4, 3-[1-(2-Methyl-7,8-dihydro-1,6,9-trioxa-3-aza-cyclopenta[a]naphthalen-8-ylmethyl)-1,2,3,6-tetrahydro-pyridin-4-yl]-1H-indole-5-carbonitrile]	–	1.68 nM	9.56 nM	100	115 nM
